Laboratory results as given in patent publication US11572373B2, “Maytansinoid-based drug delivery systems” (LADRX CORPORATION, priority 2017, dated 2023).
Where two headings read alike, the source gives them in different places. Marks after values point to notes of the source that are not given here.

Assays:
[1] = target: T1, albumin (Homo sapiens, UniProt P02768); assay: in vitro; type: in vitro ADME; settings: 37° C., 12.0 μM, read-out: % bound (converted)
T1 construct: tissue Zen-Bio; host or cells: pooled human whole blood (K2EDTA, 36 donors) and plasma prepared from it
T1 sequence (P02768 25-609): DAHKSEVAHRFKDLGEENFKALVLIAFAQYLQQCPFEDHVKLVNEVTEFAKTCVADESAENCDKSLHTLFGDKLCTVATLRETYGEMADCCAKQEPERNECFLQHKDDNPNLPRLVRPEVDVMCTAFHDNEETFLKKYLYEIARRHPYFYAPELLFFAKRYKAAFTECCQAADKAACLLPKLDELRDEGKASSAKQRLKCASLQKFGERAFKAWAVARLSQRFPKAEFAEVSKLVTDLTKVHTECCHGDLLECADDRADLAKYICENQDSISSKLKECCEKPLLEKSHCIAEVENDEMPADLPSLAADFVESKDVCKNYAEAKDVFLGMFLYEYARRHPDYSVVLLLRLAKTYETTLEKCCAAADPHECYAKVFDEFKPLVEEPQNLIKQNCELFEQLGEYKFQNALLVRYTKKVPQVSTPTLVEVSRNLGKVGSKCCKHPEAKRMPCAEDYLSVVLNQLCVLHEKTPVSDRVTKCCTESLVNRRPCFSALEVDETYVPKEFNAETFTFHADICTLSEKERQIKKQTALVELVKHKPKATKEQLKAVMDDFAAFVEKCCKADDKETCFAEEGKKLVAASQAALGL
Procedure: To study the binding kinetics of the albumin-binding maytansinoids in pooled human plasma and pooled human whole blood, the compounds were incubated together with pooled human plasma at 37° C. and samples were taken at specified time points. Remaining albumin-binding maytansinoids were quantitated by HPLC.
To study the binding kinetics in human whole blood, the blood (K2EDTA, 36 donors, Zen-Bio; 900 μL) was preincubated at 37° C. for 30 min in a heating block. To study the binding kinetics in pooled human plasma, the pooled whole blood was centrifuged (10 min, 1811 g), the supernatant plasma was collected and then preincubated at 37° C. for 30 min.
The albumin-binding maytansinoid was added to the preincubated whole blood/plasma sample as a 10-fold dilution in PBS of a 1.2 mM stock solution in 2.5% propylene glycol in 10 mM sodium phosphate buffer and 1.48 mM citrate (100 μL) to produce a 12.0 μM solution of the respective albumin-binding maytansinoid. Samples (190 μL) were taken after 15 s, 2 min, 4 min, 8 min and 15 min. The samples were directly added to 760 μL MeCN containing maytansine (5 μg/mL) as an internal standard and vortexed for 1 min. After centrifugation (1 min at 12,044 g) the supernatant (850 μL) was concentrated under high vacuum. The residue was taken up in DMSO/water (1:1 v/v; 95 μL) and then analyzed by RP-HPLC. Percentage of binding was determined by comparison of the area under the curve (AUC) at 220 nm of the albumin-binding maytansinoid relative to a control sample (100% value) in PBS buffer. All experiments were performed in triplicates.
HPLC method: Phenomenex Kinetex Polar C18, 2.6 μm, 100 Å, 150×4.6 mm; eluent A (95:5 5 mM ammonium acetate: MeCN) and eluent B (5:95 5 mM ammonium acetate: MeCN) eluting with a gradient of eluent B (30% 0-0.5 min, 30-95% 0.5-9.0 min, 95% 11.0 min, 95-30% 11.0-14.5 min, 30% 15.0 min, flow rate=1.0 mL/min). Column oven temperature ambient temperature; autosampler temperature 4° C.; 50 μL of injection volume.

[2] = Stability and release kinetics of maytansinoid-HSA conjugates in buffer solution at pH 4.0 and pH 7.4; type: physicochemical; settings: maytansinoid-HSA conjugate, PBS pH 7.4, 37° C.
Procedure: For preparing HSA conjugates of albumin-binding maytansinoids, HSA (200 μM: 361.8 μL, 1078 μM free Cys34; 100 μM: 180.9 μL, 1078 μM free Cys34) was diluted with PBS buffer (4 mM sodium phosphate, 150 mM NaCl, pH 7.4) (200 μM: 678.2 μL; 100 μM: 859.1 μL) and DMSO (200 μM: 130.0 μL; 100 μM: 195.0 μL) and incubated in a heating block at 37° C. for 30 minutes. The albumin-binding maytansinoid was added as a 2 mM stock solution in DMSO (200 μM: 130.0 μL; 100 μM: 65.0 μL) to the preincubated HSA sample to produce a 200 μM or 100 μM solution of maytansinoid-prodrug and 300 μM or 150 μM of free Cys34. The mixture having a pH of 7.4 was allowed to react for 10 min at 37° C. and was then analyzed hourly for 24 hours by RP-HPLC (Phenomenex Aeris WP XB-C18, 3.6 μm, 250×4.6 mm).
For studying the release kinetics at pH 4.0 the mixture was acidified with a mixture of 50 mM sodium acetate buffer pH 3.0 (200 μM: 119.3 μL; 100 μM: 125.2 μL) and 1 M HCl (200 μM: 12.7 μL; 100 μM: 6.8 μL) to reach pH 4.0. The mixture was subsequently analyzed hourly for 24 hours by RP-HPLC (Phenomenex Aeris WP XB-C18, 3.6 μm, 250×4.6 mm).
The following RP-HPLC conditions were used: Phenomenex Aeris WP XB-C18 3.6 μm, 250×4.6 mm; eluent A (100% 20 mM Tris buffer pH 8.0) and eluent B (90:10, MeCN: water) eluting with a gradient of eluent B (25% 0-0.5 min, 25-35% 0.5-2.5 min, 35-85% 2.5-16 min, 85-95% 16-17 min, 95% 17-20 min, 95-25% 20-25 min, 25% 25-30 min, flow rate 1.0 mL/min). Column oven temperature 37° C.; autosampler temperature 37° C.; 20 μL of injection volume.
To quantify the percentage of free drug released, standard curves of the free maytansinoids were prepared at different concentrations (200 μM, 100 μM, 50 μM, 25 μM and 12.5 μM). The area under the curve (AUC) was determined at 250 nm.

COc1cc2cc(c1Cl)N(C)C(=O)C[C@H](OC(=O)COc1cccc(/C(C)=N/NC(=O)c3ccc(NC(=O)CCCCCN4C(=O)C=CC4=O)cc3S(=O)(=O)O)c1)[C@]1(C)O[C@H]1[C@H](C)[C@@H]1C[C@@](O)(NC(=O)O1)[C@H](OC)/C=C/C=C(\C)C2 [Compound 31]
fraction unbound ([1]; blood, pooled human whole blood, 15 s): 0.008
fraction unbound ([1]; blood, pooled human whole blood, 8 min): 0.007
fraction unbound ([1]; plasma, pooled human plasma, 15 s): 0.08
fraction unbound ([1]; plasma, pooled human plasma, 8 min): 0.014
free maytansinoid after 24 h at pH 7.4 ([2]; measured at 100 μM): 3.7%**
free maytansinoid after 24 h at pH 7.4 ([2]; measured at 200 μM): 4.0%*
